A value given as a limit tells only on which side of the number the result lay.

The term Ki denotes the dissociation constant of the complex between target and ligand, obtained from inhibition or displacement. A low value points to tighter binding.

Assay [1] concerns the target T1, Muscarinic acetylcholine receptor M2 (Homo sapiens, UniProt P08172).
T1 sequence (P08172 whole entry): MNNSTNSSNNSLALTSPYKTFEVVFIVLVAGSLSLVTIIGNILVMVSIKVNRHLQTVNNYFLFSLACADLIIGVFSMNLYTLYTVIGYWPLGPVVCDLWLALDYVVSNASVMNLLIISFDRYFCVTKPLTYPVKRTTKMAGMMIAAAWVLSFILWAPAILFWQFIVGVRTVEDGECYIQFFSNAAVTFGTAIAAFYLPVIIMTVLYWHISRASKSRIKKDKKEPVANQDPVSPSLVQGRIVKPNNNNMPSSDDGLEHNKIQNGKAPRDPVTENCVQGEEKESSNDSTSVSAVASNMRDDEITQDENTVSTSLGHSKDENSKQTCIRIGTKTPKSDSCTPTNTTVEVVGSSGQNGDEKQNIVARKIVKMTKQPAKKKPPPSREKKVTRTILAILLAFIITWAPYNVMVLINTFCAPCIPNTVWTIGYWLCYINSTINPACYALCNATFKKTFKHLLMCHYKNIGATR
Put plainly: PDSP Secondary Binding target: CHRM2 - Compounds are tested at 10 uM concentration, plate are incubated at room temperature in the dark for 90 minutes. Reaction are stopped by vacuum filtration onto 0.3% polyethyleneimine soaked filter mats using Filtermate harvester. Scintillation cocktail is then melted onto microwave-dried filters on a hot plate and the radio activity is counted in Microbia counter.

Assay [2] concerns the target Sigma non-opioid intracellular receptor 1 (Homo sapiens, UniProt Q99720). Put plainly: PDSP Secondary Binding target: SIGMAR1 - Compounds are tested at 10 uM concentration, plate are incubated at room temperature in the dark for 90 minutes. Reaction are stopped by vacuum filtration onto 0.3% polyethyleneimine soaked filter mats using Filtermate harvester. Scintillation cocktail is then melted onto microwave-dried filters on a hot plate and the radio activity is counted in Microbia counter.

Assay [3] deals with Beta-2 adrenergic receptor (Homo sapiens, UniProt P07550). The assay is described as follows: PDSP Secondary Binding target: ADRB2 - Compounds are tested at 10 uM concentration, plate are incubated at room temperature in the dark for 90 minutes. Reaction are stopped by vacuum filtration onto 0.3% polyethyleneimine soaked filter mats using Filtermate harvester. Scintillation cocktail is then melted onto microwave-dried filters on a hot plate and the radio activity is counted in Microbia counter.

For assay [4], the target named is 5-hydroxytryptamine receptor 2A (Homo sapiens, UniProt P28223). The assay is described as follows: PDSP Secondary Binding target: HTR2A - Compounds are tested at 10 uM concentration, plate are incubated at room temperature in the dark for 90 minutes. Reaction are stopped by vacuum filtration onto 0.3% polyethyleneimine soaked filter mats using Filtermate harvester. Scintillation cocktail is then melted onto microwave-dried filters on a hot plate and the radio activity is counted in Microbia counter.

Assay [5] has as its target D(3) dopamine receptor (Homo sapiens, UniProt P35462). Put plainly: PDSP Secondary Binding target: DRD3 - Compounds are tested at 10 uM concentration, plate are incubated at room temperature in the dark for 90 minutes. Reaction are stopped by vacuum filtration onto 0.3% polyethyleneimine soaked filter mats using Filtermate harvester. Scintillation cocktail is then melted onto microwave-dried filters on a hot plate and the radio activity is counted in Microbia counter.

Assay [6] deals with 5-hydroxytryptamine receptor 2B (Homo sapiens, UniProt P41595). The assay is described as follows: PDSP Secondary Binding target: HTR2B - Compounds are tested at 10 uM concentration, plate are incubated at room temperature in the dark for 90 minutes. Reaction are stopped by vacuum filtration onto 0.3% polyethyleneimine soaked filter mats using Filtermate harvester. Scintillation cocktail is then melted onto microwave-dried filters on a hot plate and the radio activity is counted in Microbia counter.

The target of assay [7] is D(1A) dopamine receptor (Homo sapiens, UniProt P21728). The assay is described as follows: PDSP Secondary Binding target: DRD1 - Compounds are tested at 10 uM concentration, plate are incubated at room temperature in the dark for 90 minutes. Reaction are stopped by vacuum filtration onto 0.3% polyethyleneimine soaked filter mats using Filtermate harvester. Scintillation cocktail is then melted onto microwave-dried filters on a hot plate and the radio activity is counted in Microbia counter.

Assay [8] has as its target T2, Muscarinic acetylcholine receptor M5 (Homo sapiens, UniProt P08912).
T2 sequence (P08912 whole entry): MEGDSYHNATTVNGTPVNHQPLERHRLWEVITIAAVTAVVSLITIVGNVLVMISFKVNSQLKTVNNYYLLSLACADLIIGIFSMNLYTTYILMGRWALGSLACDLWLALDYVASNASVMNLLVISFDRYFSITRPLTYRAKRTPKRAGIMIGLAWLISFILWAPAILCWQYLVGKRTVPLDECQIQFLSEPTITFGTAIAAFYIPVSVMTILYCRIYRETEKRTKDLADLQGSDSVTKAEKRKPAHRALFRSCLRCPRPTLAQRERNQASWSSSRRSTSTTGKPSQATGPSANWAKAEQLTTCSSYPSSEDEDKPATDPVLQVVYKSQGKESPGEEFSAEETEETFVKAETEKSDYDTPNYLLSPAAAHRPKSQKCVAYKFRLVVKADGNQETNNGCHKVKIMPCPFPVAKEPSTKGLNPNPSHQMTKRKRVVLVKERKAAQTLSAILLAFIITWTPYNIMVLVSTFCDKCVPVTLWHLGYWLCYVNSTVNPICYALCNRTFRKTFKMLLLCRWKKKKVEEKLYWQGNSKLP
Put plainly: PDSP Secondary Binding target: CHRM5 - Compounds are tested at 10 uM concentration, plate are incubated at room temperature in the dark for 90 minutes. Reaction are stopped by vacuum filtration onto 0.3% polyethyleneimine soaked filter mats using Filtermate harvester. Scintillation cocktail is then melted onto microwave-dried filters on a hot plate and the radio activity is counted in Microbia counter.

Assay [9] has as its target T3, Muscarinic acetylcholine receptor M4 (Homo sapiens, UniProt P08173).
T3 sequence (P08173 whole entry): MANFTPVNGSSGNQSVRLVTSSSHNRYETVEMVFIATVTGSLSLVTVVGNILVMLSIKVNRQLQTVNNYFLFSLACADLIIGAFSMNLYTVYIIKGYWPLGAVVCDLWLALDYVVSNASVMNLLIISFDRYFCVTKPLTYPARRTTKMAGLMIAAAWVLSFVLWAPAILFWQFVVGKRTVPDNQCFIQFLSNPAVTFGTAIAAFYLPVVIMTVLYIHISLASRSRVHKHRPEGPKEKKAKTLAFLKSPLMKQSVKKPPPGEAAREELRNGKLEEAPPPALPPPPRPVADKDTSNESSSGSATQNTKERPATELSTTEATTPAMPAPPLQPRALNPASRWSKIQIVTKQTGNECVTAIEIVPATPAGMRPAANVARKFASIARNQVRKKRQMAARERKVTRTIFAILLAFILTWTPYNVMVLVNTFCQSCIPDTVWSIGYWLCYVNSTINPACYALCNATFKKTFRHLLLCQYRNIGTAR
Put plainly: PDSP Secondary Binding target: CHRM4 - Compounds are tested at 10 uM concentration, plate are incubated at room temperature in the dark for 90 minutes. Reaction are stopped by vacuum filtration onto 0.3% polyethyleneimine soaked filter mats using Filtermate harvester. Scintillation cocktail is then melted onto microwave-dried filters on a hot plate and the radio activity is counted in Microbia counter.

In assay [10] the target is Kappa-type opioid receptor (Homo sapiens, UniProt P41145). Put plainly: PDSP Secondary Binding target: OPRK1 - Compounds are tested at 10 uM concentration, plate are incubated at room temperature in the dark for 90 minutes. Reaction are stopped by vacuum filtration onto 0.3% polyethyleneimine soaked filter mats using Filtermate harvester. Scintillation cocktail is then melted onto microwave-dried filters on a hot plate and the radio activity is counted in Microbia counter.

Assay [11] deals with Muscarinic acetylcholine receptor M3 (Homo sapiens, UniProt P20309). Put plainly: PDSP Secondary Binding target: CHRM3 - Compounds are tested at 10 uM concentration, plate are incubated at room temperature in the dark for 90 minutes. Reaction are stopped by vacuum filtration onto 0.3% polyethyleneimine soaked filter mats using Filtermate harvester. Scintillation cocktail is then melted onto microwave-dried filters on a hot plate and the radio activity is counted in Microbia counter.

In assay [12] the target is D(2) dopamine receptor (Homo sapiens, UniProt P14416). Put plainly: PDSP Secondary Binding target: DRD2 - Compounds are tested at 10 uM concentration, plate are incubated at room temperature in the dark for 90 minutes. Reaction are stopped by vacuum filtration onto 0.3% polyethyleneimine soaked filter mats using Filtermate harvester. Scintillation cocktail is then melted onto microwave-dried filters on a hot plate and the radio activity is counted in Microbia counter.

Assay [13] concerns the target 5-hydroxytryptamine receptor 6 (Homo sapiens, UniProt P50406). The assay is described as follows: PDSP Secondary Binding target: HTR6 - Compounds are tested at 10 uM concentration, plate are incubated at room temperature in the dark for 90 minutes. Reaction are stopped by vacuum filtration onto 0.3% polyethyleneimine soaked filter mats using Filtermate harvester. Scintillation cocktail is then melted onto microwave-dried filters on a hot plate and the radio activity is counted in Microbia counter.

Assay [14] deals with D(1B) dopamine receptor (Homo sapiens, UniProt P21918). Put plainly: PDSP Secondary Binding target: DRD5 - Compounds are tested at 10 uM concentration, plate are incubated at room temperature in the dark for 90 minutes. Reaction are stopped by vacuum filtration onto 0.3% polyethyleneimine soaked filter mats using Filtermate harvester. Scintillation cocktail is then melted onto microwave-dried filters on a hot plate and the radio activity is counted in Microbia counter.

The target of assay [15] is Sigma intracellular receptor 2 (Homo sapiens, UniProt Q5BJF2). The assay is described as follows: PDSP Secondary Binding target: TMEM97 - Compounds are tested at 10 uM concentration, plate are incubated at room temperature in the dark for 90 minutes. Reaction are stopped by vacuum filtration onto 0.3% polyethyleneimine soaked filter mats using Filtermate harvester. Scintillation cocktail is then melted onto microwave-dried filters on a hot plate and the radio activity is counted in Microbia counter.

The target of assay [16] is T4, Muscarinic acetylcholine receptor M1 (Homo sapiens, UniProt P11229).
T4 sequence (P11229 whole entry): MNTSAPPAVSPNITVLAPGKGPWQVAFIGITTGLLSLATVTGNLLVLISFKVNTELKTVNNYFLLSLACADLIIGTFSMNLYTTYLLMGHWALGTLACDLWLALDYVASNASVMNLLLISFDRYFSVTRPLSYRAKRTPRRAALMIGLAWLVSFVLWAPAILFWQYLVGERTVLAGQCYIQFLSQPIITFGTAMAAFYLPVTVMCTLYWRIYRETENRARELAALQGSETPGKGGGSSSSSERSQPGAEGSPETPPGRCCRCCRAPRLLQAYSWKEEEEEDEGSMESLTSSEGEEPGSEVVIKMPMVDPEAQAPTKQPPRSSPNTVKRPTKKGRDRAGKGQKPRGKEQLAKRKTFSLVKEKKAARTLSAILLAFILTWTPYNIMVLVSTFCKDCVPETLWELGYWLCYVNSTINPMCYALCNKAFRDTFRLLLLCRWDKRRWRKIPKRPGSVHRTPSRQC
The assay is described as follows: PDSP Secondary Binding target: CHRM1 - Compounds are tested at 10 uM concentration, plate are incubated at room temperature in the dark for 90 minutes. Reaction are stopped by vacuum filtration onto 0.3% polyethyleneimine soaked filter mats using Filtermate harvester. Scintillation cocktail is then melted onto microwave-dried filters on a hot plate and the radio activity is counted in Microbia counter.

In assay [17] the target is Translocator protein (Homo sapiens, UniProt P30536). The assay is described as follows: PDSP Secondary Binding target: TSPO - Compounds are tested at 10 uM concentration, plate are incubated at room temperature in the dark for 90 minutes. Reaction are stopped by vacuum filtration onto 0.3% polyethyleneimine soaked filter mats using Filtermate harvester. Scintillation cocktail is then melted onto microwave-dried filters on a hot plate and the radio activity is counted in Microbia counter.
Chain of Translocator protein (P30536 whole entry): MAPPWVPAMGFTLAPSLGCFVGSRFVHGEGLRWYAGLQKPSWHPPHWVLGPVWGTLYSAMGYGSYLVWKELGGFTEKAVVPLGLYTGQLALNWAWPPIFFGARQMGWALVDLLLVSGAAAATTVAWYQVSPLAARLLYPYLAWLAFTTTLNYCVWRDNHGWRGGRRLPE

Chain of D(3) dopamine receptor (P35462 whole entry): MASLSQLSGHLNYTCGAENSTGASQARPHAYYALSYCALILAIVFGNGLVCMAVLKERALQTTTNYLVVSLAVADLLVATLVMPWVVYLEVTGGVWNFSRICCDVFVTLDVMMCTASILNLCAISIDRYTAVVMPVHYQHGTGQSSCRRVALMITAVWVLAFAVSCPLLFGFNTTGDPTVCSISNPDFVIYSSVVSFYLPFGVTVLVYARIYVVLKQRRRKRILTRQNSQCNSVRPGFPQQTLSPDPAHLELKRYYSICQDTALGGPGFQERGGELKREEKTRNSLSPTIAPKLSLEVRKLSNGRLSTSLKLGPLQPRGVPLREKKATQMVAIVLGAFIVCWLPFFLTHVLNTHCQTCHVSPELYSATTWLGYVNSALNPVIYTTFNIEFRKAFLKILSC
Chain of Sigma non-opioid intracellular receptor 1 (Q99720 whole entry): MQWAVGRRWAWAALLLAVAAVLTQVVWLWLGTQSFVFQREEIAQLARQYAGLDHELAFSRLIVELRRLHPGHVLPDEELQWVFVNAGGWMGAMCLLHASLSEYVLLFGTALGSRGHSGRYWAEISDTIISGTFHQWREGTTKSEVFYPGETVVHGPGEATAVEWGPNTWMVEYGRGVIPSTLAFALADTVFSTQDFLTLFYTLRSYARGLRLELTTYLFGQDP
Chain of 5-hydroxytryptamine receptor 2B (P41595 whole entry): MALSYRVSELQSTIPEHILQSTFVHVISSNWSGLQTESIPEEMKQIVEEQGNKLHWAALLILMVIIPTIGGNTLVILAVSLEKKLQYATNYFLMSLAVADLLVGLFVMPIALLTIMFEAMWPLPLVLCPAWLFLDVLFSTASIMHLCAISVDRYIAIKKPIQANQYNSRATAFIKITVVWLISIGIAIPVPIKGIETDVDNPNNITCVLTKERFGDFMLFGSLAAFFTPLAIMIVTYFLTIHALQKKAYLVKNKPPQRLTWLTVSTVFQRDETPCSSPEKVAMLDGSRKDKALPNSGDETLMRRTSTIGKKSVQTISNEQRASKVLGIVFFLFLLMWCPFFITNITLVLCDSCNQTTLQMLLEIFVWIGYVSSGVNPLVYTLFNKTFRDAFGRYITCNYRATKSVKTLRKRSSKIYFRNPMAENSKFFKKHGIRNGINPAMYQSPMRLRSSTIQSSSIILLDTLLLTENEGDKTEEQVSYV
Chain of D(1A) dopamine receptor (P21728 whole entry): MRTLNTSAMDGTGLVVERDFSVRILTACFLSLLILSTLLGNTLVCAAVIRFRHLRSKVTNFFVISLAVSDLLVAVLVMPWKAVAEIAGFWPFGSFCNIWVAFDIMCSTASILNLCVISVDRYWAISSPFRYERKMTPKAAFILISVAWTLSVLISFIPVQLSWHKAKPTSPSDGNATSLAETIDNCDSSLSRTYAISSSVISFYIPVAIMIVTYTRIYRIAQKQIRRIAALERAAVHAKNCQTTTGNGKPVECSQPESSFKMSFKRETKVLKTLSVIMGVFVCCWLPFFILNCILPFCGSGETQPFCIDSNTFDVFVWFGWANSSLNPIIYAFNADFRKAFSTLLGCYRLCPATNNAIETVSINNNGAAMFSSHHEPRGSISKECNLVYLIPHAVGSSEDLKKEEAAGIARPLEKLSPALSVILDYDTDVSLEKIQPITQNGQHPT
Chain of 5-hydroxytryptamine receptor 2A (P28223 whole entry): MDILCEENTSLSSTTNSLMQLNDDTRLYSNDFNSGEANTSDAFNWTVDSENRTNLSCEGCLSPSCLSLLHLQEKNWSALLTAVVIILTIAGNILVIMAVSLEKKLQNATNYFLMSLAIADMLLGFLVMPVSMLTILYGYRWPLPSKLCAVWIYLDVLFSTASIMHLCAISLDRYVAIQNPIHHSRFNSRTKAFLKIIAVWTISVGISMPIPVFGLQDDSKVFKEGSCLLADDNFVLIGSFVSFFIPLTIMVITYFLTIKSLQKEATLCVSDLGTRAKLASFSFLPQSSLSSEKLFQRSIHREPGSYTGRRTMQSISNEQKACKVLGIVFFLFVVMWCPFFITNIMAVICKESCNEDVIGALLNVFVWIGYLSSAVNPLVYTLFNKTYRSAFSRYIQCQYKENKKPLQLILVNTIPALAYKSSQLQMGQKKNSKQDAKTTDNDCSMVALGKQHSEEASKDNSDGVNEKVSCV
Chain of Kappa-type opioid receptor (P41145 whole entry): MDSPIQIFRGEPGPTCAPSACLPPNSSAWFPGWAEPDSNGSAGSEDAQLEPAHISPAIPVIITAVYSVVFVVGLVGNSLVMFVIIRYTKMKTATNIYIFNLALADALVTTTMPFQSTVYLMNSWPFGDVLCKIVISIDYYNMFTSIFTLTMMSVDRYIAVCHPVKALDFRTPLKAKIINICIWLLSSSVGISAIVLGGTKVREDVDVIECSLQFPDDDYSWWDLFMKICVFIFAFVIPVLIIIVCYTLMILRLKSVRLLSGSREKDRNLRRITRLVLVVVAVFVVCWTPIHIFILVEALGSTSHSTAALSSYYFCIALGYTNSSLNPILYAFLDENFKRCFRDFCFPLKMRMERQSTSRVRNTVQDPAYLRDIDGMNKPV
Chain of Muscarinic acetylcholine receptor M3 (P20309 whole entry): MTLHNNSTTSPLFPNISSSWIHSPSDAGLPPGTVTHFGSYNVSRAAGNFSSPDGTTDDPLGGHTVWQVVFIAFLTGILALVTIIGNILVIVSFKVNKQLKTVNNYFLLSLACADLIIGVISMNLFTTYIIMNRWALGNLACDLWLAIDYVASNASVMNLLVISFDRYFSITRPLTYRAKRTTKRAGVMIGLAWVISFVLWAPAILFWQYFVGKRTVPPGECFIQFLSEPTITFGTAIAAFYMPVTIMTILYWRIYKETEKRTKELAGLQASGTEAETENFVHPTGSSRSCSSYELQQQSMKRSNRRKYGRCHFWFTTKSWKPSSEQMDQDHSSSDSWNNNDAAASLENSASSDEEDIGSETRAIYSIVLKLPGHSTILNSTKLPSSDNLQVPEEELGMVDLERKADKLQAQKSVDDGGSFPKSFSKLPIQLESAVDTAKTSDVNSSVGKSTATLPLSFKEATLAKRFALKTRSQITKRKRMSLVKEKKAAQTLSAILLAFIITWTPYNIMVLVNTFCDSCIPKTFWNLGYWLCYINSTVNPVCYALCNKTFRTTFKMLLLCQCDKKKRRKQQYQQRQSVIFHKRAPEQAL
Chain of Beta-2 adrenergic receptor (P07550 whole entry): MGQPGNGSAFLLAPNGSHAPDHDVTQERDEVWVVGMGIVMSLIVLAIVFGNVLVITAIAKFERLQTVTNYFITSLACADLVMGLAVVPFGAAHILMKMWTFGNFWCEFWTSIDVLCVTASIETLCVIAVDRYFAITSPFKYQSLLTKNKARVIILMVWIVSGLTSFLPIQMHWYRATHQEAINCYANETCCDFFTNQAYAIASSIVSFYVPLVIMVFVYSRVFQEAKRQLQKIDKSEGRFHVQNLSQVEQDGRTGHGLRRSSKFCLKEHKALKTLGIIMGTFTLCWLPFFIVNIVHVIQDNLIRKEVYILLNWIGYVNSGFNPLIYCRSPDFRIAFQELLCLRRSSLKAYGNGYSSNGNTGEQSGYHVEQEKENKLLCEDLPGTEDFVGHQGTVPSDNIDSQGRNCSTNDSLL
Chain of Sigma intracellular receptor 2 (Q5BJF2 whole entry): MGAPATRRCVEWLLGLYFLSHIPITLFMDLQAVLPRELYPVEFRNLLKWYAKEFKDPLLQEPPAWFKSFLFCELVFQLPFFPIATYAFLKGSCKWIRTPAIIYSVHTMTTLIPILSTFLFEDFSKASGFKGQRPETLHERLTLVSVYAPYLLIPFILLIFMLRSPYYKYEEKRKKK
Chain of 5-hydroxytryptamine receptor 6 (P50406 whole entry): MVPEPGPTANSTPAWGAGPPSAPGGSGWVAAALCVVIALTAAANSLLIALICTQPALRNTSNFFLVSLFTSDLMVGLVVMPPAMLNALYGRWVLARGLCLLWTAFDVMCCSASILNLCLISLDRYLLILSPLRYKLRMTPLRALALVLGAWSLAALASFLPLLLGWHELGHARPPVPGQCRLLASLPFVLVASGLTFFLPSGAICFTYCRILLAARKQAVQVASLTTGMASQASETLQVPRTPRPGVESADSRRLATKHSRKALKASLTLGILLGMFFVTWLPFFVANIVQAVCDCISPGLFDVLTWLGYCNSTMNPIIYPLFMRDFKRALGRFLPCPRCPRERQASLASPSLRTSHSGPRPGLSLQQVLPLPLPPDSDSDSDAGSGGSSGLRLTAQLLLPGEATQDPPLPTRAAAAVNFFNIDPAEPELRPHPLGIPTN
Chain of D(1B) dopamine receptor (P21918 whole entry): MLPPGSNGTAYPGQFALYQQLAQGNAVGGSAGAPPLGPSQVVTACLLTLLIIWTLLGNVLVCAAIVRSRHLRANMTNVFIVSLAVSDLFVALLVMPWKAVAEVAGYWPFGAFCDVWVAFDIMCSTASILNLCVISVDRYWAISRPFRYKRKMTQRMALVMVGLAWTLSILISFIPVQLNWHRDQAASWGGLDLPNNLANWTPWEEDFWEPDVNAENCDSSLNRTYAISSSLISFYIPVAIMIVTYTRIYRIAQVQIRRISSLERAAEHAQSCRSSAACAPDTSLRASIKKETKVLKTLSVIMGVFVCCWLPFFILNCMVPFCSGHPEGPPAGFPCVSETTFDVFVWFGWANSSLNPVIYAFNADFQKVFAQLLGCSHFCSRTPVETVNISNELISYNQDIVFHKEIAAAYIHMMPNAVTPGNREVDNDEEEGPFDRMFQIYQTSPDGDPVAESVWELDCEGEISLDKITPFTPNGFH

As for `CC(C)NC(=O)c1ccc(C#Cc2ccncc2)cn1`, the inhibitory constant (Ki) in [1] is 6.75 µM; in assay [2], 1.1 µM.

With `CC[C@@H]1CN2C(=O)N(C)c3nc(-c4ccccc4)[nH]c3C2=N1`, the inhibition constant Ki in assay [3] is above 10 µM; in [4], 9.75 µM; in [2], 0.668 µM.

For `CCOC(=O)c1cc(C#N)c(N2CCC(C(=O)NS(=O)(=O)Cc3ccccc3)CC2)nc1C`, the Ki in assay [1] was determined as 9.07 µM; in assay [5] it was 2.81 µM.

For the compound `Cc1cccc(NC(=O)N[C@@H]2N=C(c3ccccc3)c3ccccc3N(C)C2=O)c1` [L-365260], the Ki in [4] was determined as 2.14 µM; in [6], 6.21 µM; in [7], 3.02 µM.

Turning to `Cc1cc(C(=O)N2Cc3cnn(C)c3Nc3ccccc32)ccc1CNC(=O)N1CCC[C@H]1C(=S)N1CCCN(C)CC1`, the Ki was 0.467 µM in assay [8]; 3.44 µM in assay [1]; 0.912 µM in [5]; 0.249 µM in [9]; 2.05 µM in [10]; 0.707 µM in assay [11].

Regarding `O=C(O)C1CN(Cc2ccc(-c3nc4cc(Cc5ccccc5F)ccc4s3)c(F)c2)C1`, the inhibitory constant (Ki) was above 10 µM in [3] and 1.42 µM in assay [5].

Consider `Cc1cc(NC(=O)Nc2ccc(N(C)C)cc2)c2cc(F)cc(F)c2n1`, for which the inhibition constant (Ki) in [1] is above 10 µM; in assay [12] it was 9.77 µM; in assay [6], 1.7 µM; in assay [13], above 10 µM; in [2] it was 5.38 µM.

`CCN(CC)CCCCC1CCN(CC(=O)N2c3ccccc3C(=O)Nc3cccnc32)CC1`: the Ki in assay [14] was determined as 1.85 µM; in [8], 0.944 µM; in assay [9], 0.0136 µM; in assay [15], 1.31 µM; in assay [16] it was 0.258 µM; in assay [11], 0.152 µM. This compound also displayed an inhibition constant Ki in [7] of 0.74 µM.

For `CC(C)(C)NC[C@H](O)COc1nsnc1N1CCOCC1` [TIMOLOL], the results for the Ki in assay [2] and in assay [7] were 0.391 µM and 5.28 µM, respectively.

For `Cc1nc(C(=O)N2CCC[C@H]2Cc2nnc(-c3ccccc3)o2)c(-c2ccccc2F)s1`, the Ki was above 10 µM in assay [1], 3.05 µM in assay [6], 0.704 µM in assay [10] and 0.789 µM in assay [17].

(Values after ChEMBL document CHEMBL5442175, “EUbOPEN Chemogenomics Library - PDSP Secondary Binding” (2024).)
